Values quoted from earlier work in patent US20080096864A1, “Treatment Of Gastrointestinal Stromal Tumors With Imatinib And Midostaurin” (priority 2003, published 2008).

System: advanced GIST
Settings: GIST patients on imatinib, one study

SMILES: Cc1ccc(NC(=O)c2ccc(CN3CCN(C)CC3)cc2)cc1Nc1nccc(-c2cccnc2)n1 [imatinib]
- primary resistance to imatinib, share of patients: 13.7 % of patients
